Patent US8466186B2, “Compounds” (Boehringer Ingelheim International GmbH, priority 2010, dated 2013)

Molecular target: T1, recombinant human mPGES-1 (Homo sapiens, UniProt O14684)
T1 construct: made in house; host or cells: Rosetta E. coli (membrane/microsome fraction)
T1 sequence (O14684 1-152): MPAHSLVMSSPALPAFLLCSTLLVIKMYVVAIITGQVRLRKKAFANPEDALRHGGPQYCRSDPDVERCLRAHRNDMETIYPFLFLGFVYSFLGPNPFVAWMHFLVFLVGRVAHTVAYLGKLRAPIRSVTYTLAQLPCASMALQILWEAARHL
Assay: Assay B: mPGES-1 enzyme assay (modified)
Type: biochemical
Conditions: biological assay B (modified); PGH2 final conc. 2 μM; read-out: mPGES-1 inhibitory effect IC50
Experimental: Assay B: mPGES-1 Enzyme Assay (Modified)
Microsomes from Rosetta E. coli bacteria expressing recombinant human mPGES-1 can be derived as described below:
Inoculate 5 ml LB with Ampicilin (50 μg/ml) and Chloramphenicol (34 μg/ml) with bacteria from freeze culture. Incubate 8 h at 37° C. with 200 rpm. Thereafter, inoculate 500-1000 ml LB containing Ampicilin and Chloramphenicol with the 5 ml on culture and grow to OD640 of 0.8-1.0. Chill the culture to +4° C. before induction. Induce the culture with IPTG at a final concentration of 400 μM. Express the protein at room temp 18-23° C. with 200 rpm shaking overnight.
The following steps can be performed on the following day: • 1. Spin down the cells in 250 ml centrifuge flasks for 15 min at 7000 rpm (Beckmann Coulte Avanti J-E centrifuge) • 2. Dissolve the pellet from 250 ml culture in 12.5 ml homogenization buffer • 3. (15 mM Tris-HCL pH8, 1 mM EDTA pH8, […], 2.5 mM GSH, 1 Tablet Protease inhibitor per 50 ml buffer) • 4. Disintegrate the cells by sonication, 5×10 seconds at 48% amplitude of a 750 W sonifier • 5. Add 2.5 ml MgCl2 (100 mM) and DNase 12.5 μl (0.8 mg/ml) and incubate on ice for 30 min • 6. Spin down the bacteria debris and save the supernatant, 7000 rpm for 15 min • 7. Isolate the protein containing membranes in the supernatant by ultracentrifugation 120000×g for 2 hour at 4° C. (Sorvall T880 rotor). • 8. Discard the supernatant and dissolve the pellet in 20 mM Potassium phosphate buffer pH7.4 (KH2PO4 and K2HPO4) buffer by sonication (5×10 s, 30% of a 50 W sonifier) and aliquot the enzyme and store aliquots at −80° C.
Before each experiment is performed an aliquot of the enzyme is thawed and it can then be dissolved in 0.1 M Potassium phosphate buffer pH7.4 (KH2PO4 and K2HPO4) buffer containing 2.5 mM GSH.
The aim of this assay is to determine the affinity of a test compound for the mPGES-1 enzyme.
47 μl of recombinant human mPGES-1 (˜0.5 μg protein/well) containing microsomal suspension in a buffer containing GSH, (2.5 mmol/L L-Glutathione reduced, dissolved in 0.1 mol/L Phosphat Buffer pH 7.4) is dispensed in a 384-well plate and thereafter 1 μl of the test compound(s) is/are added and incubated for 25 minutes at room temperature. The enzyme reaction is started by the addition of 2 ul PGH2 (final conc. 2 μM) dissolved in water-free Diglyme. After 60 seconds the reaction is terminated by addition of a stop solution containing FeCl2 (10 μL 0.074 mol/l FeCl2). The samples are diluted between 1:25 in PBS (Phosphate Buffered Saline). 10 μl of the diluted samples are transferred to 384-well low volume plate. In order to quantify the amount of PGE2 that has been formed, a homogenous time resolved fluorescent (HTRF) detecting of PGE2 has been performed using a commercially available kit from Cisbio according to the manufactures recommendation. This HTRF-based assay has been described in detail (see: Goedken et al., J Biomol Screen, 2008, 13(7), 619-625). Briefly, the diluted samples are mixed with 5 μl PGE2-d2 conjungate and 5 μl anti-PGE2 cryptate conjungate. After an incubation period of the plates overnight, the fluorescence is measured by the use of an appropriate microplate reader.
The fluorescence of Europium cryptate (maxex=307 nm, maxem=620 nm) and d2-PGE2 (maxex=620 nm, maxem=665 nm) are measured.
The extent of the specific HTRF is measured as a ratio of the emission intensity at 665 nm vs. that at 620 nm at an excitation puls of 320 nm. The quantification plate contains also wells with different concentrations of PGE2 as calibration curve for the calculation of the PGE2 concentrations from the HTRF ratio values.
From all mPGES enzyme assay the background is subtracted and the IC50 is calculated over a nonlinear regression with conventional software.

An IC50 of 6.5 nM was found for `Cn1c(Nc2cc(CNC(=O)C(C)(C)C(F)(F)F)ccc2Cl)nc2cc(Cl)c(N3CCN(c4ccc(C(F)(F)F)cc4)CC3)cc21` [Example 98] in this work.
An IC50 of 174 nM was found for `Cn1c(Nc2cc(CNC(=O)C(C)(C)C)ccc2Cl)nc2cc(N3CCC(C(F)(F)F)CC3)ccc21` [Example 12] in this work.
